Results on one compound are retold here after patent US20210315844A1, “ENDOXIFEN FOR THE TREATMENT OF BIPOLAR I DISORDER” (Jina Pharmaceuticals, Inc., priority 2020, published 2021).

One series deals with PKC. The following applies: relative to tamoxifen; cited from earlier work.
Series [1] relates to patient of bipolar I disorders. Kind of series: Clinical study: C-SSRS score / risk of suicidal behavior in patients treated with endoxifen enteric coated tablet. The series is classed as in vivo, human. To be noted: day 21 (EOT). On the procedure: Clinical study of an enteric coated tablet comprising endoxifen citrate formulation was carried out by administering to the patient doses of 2 mg to 16 mg of endoxifen citrate in an enteric coated tablet once per day for at least 21 days according to the present application.
This study was a multicenter, randomized, double-blind, double-dummy, active controlled, parallel study to assess the efficacy and safety of endoxifen enteric coated tablet 8 mg and divalproex sodium extended release tablet 1000 mg in patient of bipolar I disorders, this study also evaluated the risk of suicidal behavior in the patient and that has progressed during or after treatment with at least one drug(s) selected from lithium, valproate, carbamazepine or an atypical (except clozapine) or typical antipsychotic.
Total 110 patients were qualified for PP population.

Turning to `CC/C(=C(\c1ccc(O)cc1)c1ccc(OCCNC)cc1)c1ccccc1.O=C(O)CC(O)(CC(=O)O)C(=O)O` [Endoxifen, (Z)-1-(4-Hydroxyphenyl)-1-{4-[2-(monomethylamino)ethoxy]phenyl}-2-phenyl-1-butene citrate], the “potency in inhibiting the PKC activity compared to tamoxifen” value in the series on PKC is “four-fold higher potency”. Moreover, the “risk of suicidal behavior” value in series [1] is given as “zero”.
